The values that follow come from US12083101B2, “Biaryl derivatives as YAP/TAZ-TEAD protein-protein interaction inhibitors” (Novartis AG, priority 2020, dated 2024).

Structures are written as SMILES. Where only a bound is given, the exact number is not on record here.

The target of the test is Avi-humanTEAD4 217-434 / Cy5 labeled humanYAP 60-100 (Homo sapiens (Human), UniProt Q15561). Description: TR-FRET YAP-TEAD4 in-vitro biochemical assay. It counts as binding. As to conditions: 1 nM Avi-humanTEAD4 217-434, 20 nM Cy5-humanYAP 60-100, 1 h room temperature.
Avi-humanTEAD4 217-434 / Cy5 labeled humanYAP 60-100, sequence (Q15561 217-434): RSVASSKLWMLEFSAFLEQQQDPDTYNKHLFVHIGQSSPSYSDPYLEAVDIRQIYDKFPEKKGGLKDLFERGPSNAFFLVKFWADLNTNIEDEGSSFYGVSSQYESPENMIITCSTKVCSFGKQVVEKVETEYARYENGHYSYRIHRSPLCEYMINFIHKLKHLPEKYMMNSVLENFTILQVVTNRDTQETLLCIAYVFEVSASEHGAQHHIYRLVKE
`COC(=O)[C@H]1CC[C@@H](NC[C@@]2(c3ccccc3)Cc3c(ccc(Cl)c3-c3c(C(N)=O)ccc(F)c3F)O2)CC1` (relative stereo) [Example 137a, Methyl (cis)-4-((((2S,4S)-4-(6-carbamoyl-2,3-difluorophenyl)-5-chloro-2-phenyl-2,3-dihydrobenzofuran-2-yl)methyl)amino)cyclohexane-1-carboxylate] showed a half-maximal inhibitory concentration (IC50) of 5 nM.

`COC(=O)[C@H]1CC[C@H](NC[C@@]2(c3ccccc3)Cc3c(ccc(Cl)c3-c3c(C(N)=O)ccc(F)c3F)O2)CC1` (relative stereo) [Example 137b, methyl (trans)-4-((((2S,4S)-4-(6-carbamoyl-2,3-difluorophenyl)-5-chloro-2-phenyl-2,3-dihydrobenzofuran-2-yl)methyl)amino)cyclohexane-1-carboxylate]: the IC50 is 6 nM.

For the compound `CNC(=O)[C@H]1CC[C@H](NC[C@@]2(c3ccccc3)Cc3c(ccc(Cl)c3-c3c(F)cccc3C(N)=O)O2)CC1` (relative stereo) [Example 139a, 2-((2S,4S)-5-Chloro-2-((((trans)-4-(methylcarbamoyl)cyclohexyl)amino)methyl)-2-phenyl-2,3-dihydrobenzofuran-4-yl)-3-fluorobenzamide], the IC50 was 21 nM.

For the compound `CNC(=O)[C@H]1CC[C@@H](NC[C@@]2(c3ccccc3)Cc3c(ccc(Cl)c3-c3c(F)cccc3C(N)=O)O2)CC1` (relative stereo) [Example 139b, 2-((2S,4S)-5-chloro-2-((((cis)-4-(methylcarbamoyl)cyclohexyl)amino)methyl)-2-phenyl-2,3-dihydrobenzofuran-4-yl)-3-fluorobenzamide], half-maximal inhibition (IC50) was put at 11 nM.

Regarding `NC(=O)c1ccc(OC(F)F)c(F)c1-c1c(Cl)c(F)cc2c1C[C@@](CNC1CCC(O)(CF)CC1)(c1ccccc1)O2` (single isomer, unassigned) [Example 55a], the IC50 is below 1 nM.

In turn, `NC(=O)c1ccc(OC(F)F)c(F)c1-c1c(Cl)c(F)cc2c1C[C@@](CNC1CCC(O)(CF)CC1)(c1ccccc1)O2` (single isomer, unassigned) [Example 55b] displayed an IC50 of 2 nM.

`CS(=O)(=O)NC1CCC(NC[C@@]2(c3ccccc3)Cc3c(cc(F)c(Cl)c3-c3c(C(N)=O)ccc(OC(F)F)c3F)O2)CC1` (single isomer, unassigned) [Example 57a] came in with a half-maximal inhibitory concentration (IC50) of 3 nM.

Take `CS(=O)(=O)NC1CCC(NC[C@@]2(c3ccccc3)Cc3c(cc(F)c(Cl)c3-c3c(C(N)=O)ccc(OC(F)F)c3F)O2)CC1` (single isomer, unassigned) [Example 57b]: the IC50 stood at 6 nM.

Regarding `NC(=O)c1ccc(OC(F)F)c(F)c1-c1c(Cl)c(F)cc2c1C[C@@](CNC1CCC3(CCC(=O)N3)CC1)(c1ccccc1)O2` (single isomer, unassigned) [Example 59a], half-maximal inhibition (IC50) required 6 nM.

As for `NC(=O)c1ccc(OC(F)F)c(F)c1-c1c(Cl)c(F)cc2c1C[C@@](CNC1CCC3(CCC(=O)N3)CC1)(c1ccccc1)O2` (single isomer, unassigned) [Example 59b], the IC50 was 5 nM.

`NC(=O)c1ccc(OC(F)F)c(F)c1-c1c(Cl)c(F)cc2c1C[C@@](CNC1CCC(CO)CC1)(c1ccccc1)O2` (single isomer, unassigned) [Example 61a] showed an IC50 of 8 nM.

The compound `NC(=O)c1ccc(OC(F)F)c(F)c1-c1c(Cl)c(F)cc2c1C[C@@](CNC1CCC(CO)CC1)(c1ccccc1)O2` (single isomer, unassigned) [Example 61b] registered a concentration for half-maximal inhibition (IC50) of 10 nM.

Compound `NC(=O)c1ccc(OC(F)F)c(F)c1-c1c(Cl)c(F)cc2c1C[C@@](CNC1CC3(CC(O)C3)C1)(c1ccccc1)O2` (single isomer, unassigned) [Example 85b] gave an IC50 of 7 nM.

Turning to `COc1ccc(C(N)=O)c(-c2c(Cl)ccc3c2OC(CN)(c2ccccc2)C3)c1F` (single isomer, unassigned) [Example 132, 2-(2-(Aminomethyl)-6-chloro-2-phenyl-2,3-dihydrobenzofuran-7-yl)-3-fluoro-4-methoxybenzamide], half-maximal inhibition (IC50) was put at 2080 nM.

Turning to `NCC1(c2ccccc2)Oc2ccc(Cl)c(-c3c(F)cccc3C(N)=O)c2O1` (single isomer, unassigned) [Example 133, 2-(2-(Aminomethyl)-5-chloro-2-phenylbenzo[d][1,3]dioxol-4-yl)-3-fluorobenzamide], the midpoint of inhibition, the IC50, lay at 695 nM.

In turn, `COc1ccc(C(N)=O)c(-c2c(Cl)c(F)cc3c2C[C@](c2ccccc2)(C2COCCN2)O3)c1F` (single isomer, unassigned) [Example 163] returned an IC50 of 130 nM.

In turn, `NC[C@@]1(c2ccccc2)Cc2c(ccc(Cl)c2-c2c(F)cccc2C(N)=O)O1` (stereo in doubt) [Example 4a, 2-((2S*,4S*)-2-(Aminomethyl)-5-chloro-2-phenyl-2,3-dihydrobenzofuran-4-yl)-3-fluorobenzamide] showed an IC50 of 34 nM.

As for `NC[C@]1(c2ccccc2)Cc2c(ccc(Cl)c2-c2c(F)cccc2C(N)=O)O1` (stereo in doubt) [Example 4b, 2-((2S*,4R*)-2-(aminomethyl)-5-chloro-2-phenyl-2,3-dihydrobenzofuran-4-yl)-3-fluorobenzamide], the 50% inhibitory concentration (IC50) is above 100000 nM.

For `NCCOc1cccc(F)c1-c1c(Cl)ccc2c1C[C@@](CN)(c1ccccc1)O2` [Example 3a, 2-(2-((2S,4S)-2-(Aminomethyl)-5-chloro-2-phenyl-2,3-dihydrobenzofuran-4-yl)-3-fluorophenoxy)ethanamine], the IC50 is 16 nM.

For the compound `NCCOc1cccc(F)c1-c1c(Cl)ccc2c1C[C@](CN)(c1ccccc1)O2` [Example 3b, 2-(2-((2R,4R)-2-(aminomethyl)-5-chloro-2-phenyl-2,3-dihydrobenzofuran-4-yl)-3-fluorophenoxy)ethanamine], the half-inhibitory concentration (IC50) is 18000 nM.

`NC[C@@]1(c2ccccc2)Cc2c(cc(F)c(Cl)c2-c2c(F)cccc2C(N)=O)O1` [Example 32b, 2-((2S,4R)-2-(aminomethyl)-5-chloro-6-fluoro-2-phenyl-2,3-dihydrobenzofuran-4-yl)-3-fluorobenzamide]: the IC50 was above 100000 nM.

Turning to `NC(=O)c1ccc(OC(F)F)c(F)c1-c1c(Cl)c(F)cc2c1C[C@@](CNC1CC3(CC(O)C3)C1)(c1ccccc1)O2` (stereo partly drawn) [Example 85a, 2-((2S,4S)-5-Chloro-6-fluoro-2-(((6-hydroxyspiro[3.3]heptan-2-yl)amino)methyl)-2-phenyl-2,3-dihydrobenzofuran-4-yl)-4-(difluoromethoxy)-3-fluorobenzamide], the midpoint of inhibition, the IC50, lay at 4 nM.

The compound `N#Cc1ccc2c(c1-c1ccccc1)C[C@@](CN[C@H]1CC[C@H](O)CC1)(c1ccccc1)O2` [Example 130, (S)-2-((((trans)-4-Hydroxycyclohexyl)amino)methyl)-2,4-diphenyl-2,3-dihydrobenzofuran-5-carbonitrile] came in with an IC50 of 797 nM.

`CNC(=O)c1cnc(OCC(=O)O)c(F)c1-c1c(Cl)c(F)cc2c1C[C@](c1ccccc1)([C@@H]1CCCN1)O2` [Example 156, 2-((4-((2S,4S)-5-Chloro-6-fluoro-2-phenyl-2-((S)-pyrrolidin-2-yl)-2,3-dihydrobenzofuran-4-yl)-3-fluoro-5-(methylcarbamoyl)pyridin-2-yl)oxy)acetic acid] yielded an IC50 of 11 nM.

In the case of `CNC(=O)c1cnc(O)c(F)c1-c1c(Cl)c(F)cc2c1C[C@](c1ccccc1)([C@@H]1CCCN1)O2` [Example 157, 4-((2S,4S)-5-chloro-6-fluoro-2-phenyl-2-((S)-pyrrolidin-2-yl)-2,3-dihydrobenzofuran-4-yl)-5-fluoro-6-hydroxy-N-methylnicotinamide], the midpoint of inhibition, the IC50, lay at 75 nM.

For `Fc1cc2c(c(-c3ccccc3)c1Cl)C[C@](c1ccccc1)([C@@H]1C[C@@H](F)CN1)O2` [Example 160, (2S,4R)-2-((S)-5-chloro-6-fluoro-2,4-diphenyl-2,3-dihydrobenzofuran-2-yl)-4-fluoropyrrolidine], the IC50 stood at 4400 nM.
